Assay results as given in BindingDB's records for doi:10.1002/cbic.201300770 (Northeast Ohio Medial University, 2014).

How the values were obtained:
[1] = target: T1, Amine oxidase [flavin-containing] B (Homo sapiens, UniProt P27338); assay: MAO Enzyme Assays; conditions: pH 7.4
T1 sequence (P27338 whole entry): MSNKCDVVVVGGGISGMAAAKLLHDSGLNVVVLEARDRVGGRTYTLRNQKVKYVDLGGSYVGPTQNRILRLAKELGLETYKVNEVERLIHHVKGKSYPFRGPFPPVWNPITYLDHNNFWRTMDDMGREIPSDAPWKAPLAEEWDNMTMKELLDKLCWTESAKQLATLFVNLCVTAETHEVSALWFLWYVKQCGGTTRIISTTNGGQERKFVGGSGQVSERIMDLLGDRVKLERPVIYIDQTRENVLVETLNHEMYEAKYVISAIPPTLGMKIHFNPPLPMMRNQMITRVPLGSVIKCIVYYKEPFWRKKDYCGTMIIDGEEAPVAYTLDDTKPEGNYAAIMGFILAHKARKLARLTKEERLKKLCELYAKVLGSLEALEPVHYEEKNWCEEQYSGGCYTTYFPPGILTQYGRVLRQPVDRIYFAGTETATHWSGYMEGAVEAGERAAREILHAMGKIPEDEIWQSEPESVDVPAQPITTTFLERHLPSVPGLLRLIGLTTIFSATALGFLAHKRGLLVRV
Experimental: (§1) The buffer system used was a 0.1 M phosphate buffer (pH 7.4). The assays were carried out in a fluorescent 96-well plate. The final concentrations of MAO-A and MAO-B were 6 µg/mL and 15 µg/mL, respectively. The final concentration of kynuramine was 40 µM for MAO-A or 20 µM for MAO-B. The compounds (10 mM stock solution in DMSO; less than 2% (v/v) final concentration of DMSO in the assay) were incubated with MAO and the substrate for 20 min, and quenched with the addition of 2 N NaOH.

[2] = target: T2, Amine oxidase [flavin-containing] A (Homo sapiens, UniProt P21397); assay: MAO Enzyme Assays; conditions: pH 7.4
T2 sequence (P21397 whole entry): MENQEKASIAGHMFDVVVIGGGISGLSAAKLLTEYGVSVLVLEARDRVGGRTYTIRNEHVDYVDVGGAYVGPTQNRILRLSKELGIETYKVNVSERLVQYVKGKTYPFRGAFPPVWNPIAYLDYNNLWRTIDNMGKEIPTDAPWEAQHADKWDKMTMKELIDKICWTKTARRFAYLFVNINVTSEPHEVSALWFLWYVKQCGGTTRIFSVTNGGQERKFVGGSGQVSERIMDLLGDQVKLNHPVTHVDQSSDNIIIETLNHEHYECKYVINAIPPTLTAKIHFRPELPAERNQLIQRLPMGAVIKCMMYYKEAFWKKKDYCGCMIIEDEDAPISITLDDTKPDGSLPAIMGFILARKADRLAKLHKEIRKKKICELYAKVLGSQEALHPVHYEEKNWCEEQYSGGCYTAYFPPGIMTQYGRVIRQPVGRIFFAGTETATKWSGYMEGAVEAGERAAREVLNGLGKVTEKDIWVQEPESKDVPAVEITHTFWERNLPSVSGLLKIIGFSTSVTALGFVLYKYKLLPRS
Experimental: as §1

Row | SMILES | IC50 [1] [µM] | IC50 [2] [µM]
1 | c1ccc(/N=N/c2ccccc2)cc1 [(E)-1,2-diphenyldiazene] | 2.66 | 22.9
2 | CN(C)c1ccc(/N=N/c2ccccc2)cc1 [(E)-N,N-dimethyl-4-(phenyldiazenyl)aniline] | 0.0146 | 4.64
